From US20230391772A1, “METHODS AND COMPOSITIONS FOR TARGETED PROTEIN DEGRADATION” (Ranok Therapeutics (Hangzhou) Co. Ltd., priority 2020, published 2023)

Tests used:
[1] = tested on: MIA PaCa-2 human pancreatic carcinoma; assay: MIA PaCa-2 CCK-8 proliferation assay; type: cell-based; conditions: Homo sapiens, MIA PaCa-2, 72 h, MIA PaCa-2 cells
How it was run: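 KRAS(G12C) lines were used: MIA PaCa-2 with 2 copies, and NCI-H358 and NCI-H23 with 1 copy each. Cells were treated with 3-fold compound dilutions from 20 μM to 1.02 nM, and proliferation was read by CCK-8 absorbance. % inhibition was calculated against DMSO-treated cells after subtracting the cell-free medium blank.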

[2] = biological target: T1, HSP90a protein (Homo sapiens, UniProt P07900); assay: HSP90α-binding fluorescent polarization (FP) assay, BODIPY-labeled RNK04010 probe; conditions: FP competition with RNK04010 (BODIPY-labeled), 5 nM, 300 min at 25° C.
T1 construct: purchased BPS Bioscience 50298
How it was run: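 Compound dilutions (20 μM to 5.2 nM, 2.5-fold) are combined with 5 nM final labeled probe, and HSP90a N-terminal protein is added last. Plates are shaken briefly and held at 25° C for 120 min (FITC-geldanamycin) or 300 min (BODIPY-RNK04010), then FP is measured.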

[3] = biological target: KRAS(G12C) (Homo sapiens, UniProt P01116, G12C); assay: KRAS(G12C)/SOS1 homogeneous time-resolved fluorescence (HTRF) assay; parameters: purchased Cisbio 63ADK000CB16PEG; conditions: absence of GTP, 4° C. for 3 hr, read-out: KRAS (G12C) binding
How it was run: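 Three-hour incubation at 4 °C of 3-fold compound dilutions (lowest 1.02 nM) with KRAS(G12C), SOS1 and detection reagents, GTP absent. Disruption of the KRAS(G12C)/SOS1 complex detected by time-resolved fluorescence.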

Sequence of KRAS(G12C) (P01116 1-188 isoform P01116-2 G12C): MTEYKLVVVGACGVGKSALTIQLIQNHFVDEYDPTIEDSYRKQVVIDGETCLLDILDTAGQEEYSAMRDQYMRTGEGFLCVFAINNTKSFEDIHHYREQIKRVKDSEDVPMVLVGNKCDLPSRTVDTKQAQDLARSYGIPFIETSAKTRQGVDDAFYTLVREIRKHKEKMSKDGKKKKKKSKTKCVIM

EC50 [1]	IC50 [2]	IC50 [3]	SMILES
100 to 1000 nM	< 100 nM	< 100 nM	C=CC(=O)N1CCN(c2nc(OC[C@@H]3C[C@H](NC(=O)C4CCN(C(=O)C5CCN(Cc6ccc(-n7c(O)nnc7-c7cc(C(C)C)c(O)cc7O)cc6)CC5)CC4)CN3C)nc3c2CCN(c2cccc4cccc(Cl)c24)C3)C[C@@H]1CC#N [Compound 309, N-[(3S,5S)-5-({[7-(8-chloronaphthalen-1-yl)-4-[(3S)-3-(cyanomethyl)-4-(prop-2-enoyl)piperazin-1-yl]-5H,6H,8H-pyrido[3,4-d]pyrimidin-2-yl]oxy}methyl)-1-methylpyrrolidin-3-yl]-1-[1-({4-[3-(2,4-dihydroxy-5-isopropylphenyl)-5-hydroxy-1,2,4-triazol-4-yl]phenyl}methyl)piperidine-4-carbonyl]piperidine-4-carboxamide]
100 to 1000 nM	< 100 nM	100 to 1000 nM	C=CC(=O)N1CCN(c2nc(OC[C@@H]3C[C@H](C(=O)N4CCN(Cc5ccc(-n6c(C(=O)NCC(F)(F)C(F)(F)F)nnc6-c6cc(C(C)C)c(O)cc6O)cc5)CC4)CN3C)nc3c2CCN(c2cccc4cccc(Cl)c24)C3)C[C@@H]1CC#N [Compound 339, 4-[4-({4-[(3S,5S)-5-({[7-(8-chloronaphthalen-1-yl)-4-[(3S)-3-(cyanomethyl)-4-(pr-op-2-enoyl)piperazin-1-yl]-5H,6H,8H-pyrido[3,4-d]pyrimidin-2-yl]oxy}methyl)-1-methylpyrrolidine-3-carbonyl]piperazin-1-yl}methyl)phenyl]-5-(2,4-dihydroxy-5-isopropylphenyl)-N-(2,2,3,3,3-pentafluoropropyl)-1,2,4-triazole-3-carboxamide]
100 to 1000 nM	< 100 nM	100 to 1000 nM	C=CC(=O)N1CCN(c2nc(OC[C@@H]3C[C@@H](NC(=O)C4CCN(Cc5ccc(-n6c(C(N)=O)nnc6-c6cc(C(C)C)c(O)cc6O)cc5)CC4)CN3C)nc3c2CCN(c2cccc4cccc(Cl)c24)C3)C[C@@H]1CC#N [Compound 194, N-((3R,5S)-5-(((4-((S)-4-acryloyl-3-(cyanomethyl)piperazin-1-yl)-7-(8-chloronaphthalen-1-yl)-5,6,7,8-tetrahydropyrido[3,4-d]pyrimidin-2-yl)oxy)methyl)-1-methylpyrrolidin-3-yl)-1-(4-(3-carbamoyl-5-(2,4-dihydroxy-5-isopropylphenyl)-4H-1,2,4-triazol-4-yl)benzyl)piperidine-4-carboxamide]
< 100 nM	< 100 nM	< 100 nM	C=CC(=O)N1CCN(c2nc(OC[C@@H]3C[C@@H](OCC(=O)N4CCC(CN5CCN(Cc6ccc(-n7c(C(=O)NCC(F)(F)F)nnc7-c7cc(CC)c(O)cc7O)cc6)CC5)CC4)CN3C)nc3c2CCN(c2cccc4cccc(Cl)c24)C3)C[C@@H]1CC#N [Compound 300, 4-(4-((4-((1-(2-(((3R,5S)-5-(((4-((S)-4-acryloyl-3-(cyanomethyl)piperazin-1-yl)-7-(8-chloronaphthalen-1-yl)-5,6,7,8-tetrahydropyrido[3,4-d]pyrimidin-2-yl)oxy)methyl)-1-methylpyrrolidin-3-yl)oxy)acetyl)piperidin-4-yl)methyl)piperazin-1-yl)methyl)phenyl)-5-(5-ethyl-2,4-dihydroxyphenyl)-N-(2,2,2-trifluoroethyl)-4H-1,2,4-triazole-3-carboxamide]
100 to 1000 nM	< 100 nM	> 1000 nM	C=CC(=O)N1CCN(c2nc(OC[C@@H]3CCCN(C(=O)C4CCN(Cc5ccc(-n6c(O)nnc6-c6cc(C(C)C)c(O)cc6O)cc5)CC4)C3)nc3c2CCN(c2cccc4cccc(Cl)c24)C3)C[C@@H]1CC#N [Compound 293, 2-((S)-1-acryloyl-4-(7-(8-chloronaphthalen-1-yl)-2-(((R)-1-(1-(4-(3-(2,4-dihydroxy-5-isopropylphenyl)-5-hydroxy-4H-1,2,4-triazol-4-yl)benzyl)piperidine-4-carbonyl)piperidin-3-yl)methoxy)-5,6,7,8-tetrahydropyrido[3,4-d]pyrimidin-4-yl)piperazin-2-yl)acetonitrile]
100 to 1000 nM	< 100 nM	100 to 1000 nM	C=CC(=O)N1CCN(c2nc(OCCN3CCN(C(=O)C4CCN(Cc5ccc(-n6c(C(=O)NCC(F)(F)F)nnc6-c6cc(C)c(O)cc6O)cc5)CC4)CC3)nc3c2CCN(c2cccc4cccc(Cl)c24)C3)C[C@@H]1CC#N [Compound 222, (S)-4-(4-((4-(4-(2-((4-(4-acryloyl-3-(cyanomethyl)piperazin-1-yl)-7-(8-chloronaphthalen-1-yl)-5,6,7,8-tetrahydropyrido[3,4-d]pyrimidin-2-yl)oxy)ethyl)piperazine-1-carbonyl)piperidin-1-yl)methyl)phenyl)-5-(2,4-dihydroxy-5-methylphenyl)-N-(2,2,2-trifluoroethyl)-4H-1,2,4-triazole-3-carboxamide]
> 1000 nM	< 100 nM	100 to 1000 nM	C=CC(=O)N1CCN(c2nc(OC[C@@H]3C[C@@H](OC(=O)NCc4ccc(-n5c(O)nnc5-c5cc(CC)c(O)cc5O)cc4)CN3C)nc3c2CCN(c2cccc4cccc(Cl)c24)C3)C[C@@H]1CC#N [Compound 295, (3R,5S)-5-(((4-((S)-4-acryloyl-3-(cyanomethyl)piperazin-1-yl)-7-(8-chloronaphthalen-1-yl)-5,6,7,8-tetrahydropyrido[3,4-d]pyrimidin-2-yl)oxy)methyl)-1-methylpyrrolidin-3-yl 4-(3-(5-ethyl-2,4-dihydroxyphenyl)-5-hydroxy-4H-1,2,4-triazol-4-yl)benzylcarbamate]
> 1000 nM	< 100 nM	> 1000 nM	C=CC(=O)N1CCN(c2nc(OC[C@@H]3C[C@@H](OC(=O)N4CCN(Cc5ccc(-n6c(O)nnc6-c6cc(CC)c(O)cc6O)cc5)CC4)CN3C)nc3c2CCN(c2cccc4cccc(Cl)c24)C3)C[C@@H]1CC#N [Compound 294, (3R,5S)-5-(((4-((S)-4-acryloyl-3-(cyanomethyl)piperazin-1-yl)-7-(8-chloronaphthalen-1-yl)-5,6,7,8-tetrahydropyrido[3,4-d]pyrimidin-2-yl)oxy)methyl)-1-methylpyrrolidin-3-yl 4-(4-(3-(5-ethyl-2,4-dihydroxyphenyl)-5-hydroxy-4H-1,2,4-triazol-4-yl)benzyl)piperazine-1-carboxylate]
> 1000 nM	< 100 nM	100 to 1000 nM	C=CC(=O)N1CCN(c2nc(OCCN3CCC(C(=O)N4CCC(Cc5ccc(-n6c(O)nnc6-c6cc(C(C)C)c(O)cc6O)cc5)CC4)CC3)nc3c2CCN(c2cccc4cccc(Cl)c24)C3)C[C@@H]1CC#N [Compound 211, (S)-2-(1-acryloyl-4-(7-(8-chloronaphthalen-1-yl)-2-(2-(4-(4-(4-(3-(2,4-dihydroxy-5-isopropylphenyl)-5-hydroxy-4H-1,2,4-triazol-4-yl)benzyl)piperidine-1-carbonyl)piperidin-1-yl)ethoxy)-5,6,7,8-tetrahydropyrido[3,4-d]pyrimidin-4-yl)piperazin-2-yl)acetonitrile]
< 100 nM	< 100 nM	< 100 nM	C=CC(=O)N1CCN(c2nc(OC[C@@H]3CC[C@H](CN4CCN(C(=O)C5CCN(Cc6ccc(-n7c(O)nnc7-c7cc(C(C)C)c(O)cc7O)cc6)CC5)CC4)N3C)nc3c2CCN(c2cccc4cccc(Cl)c24)C3)C[C@@H]1CC#N [Compound 313, 2-[(2S)-4-[7-(8-chloronaphthalen-1-yl)-2-{[(2S,5R)-5-({4-[1-({4-[3-(2,4-dihydroxy-5-isopropylphenyl)-5-hydroxy-1,2,4-triazol-4-yl]phenyl}methyl)piperidine-4-carbonyl]piperazin-1-yl}methyl)-1-methylpyrrolidin-2-yl]methoxy}-5H,6H,8H-pyrido [3,4-d]pyrimidin-4-yl]-1-(prop-2-enoyl)piperazin-2-yl]acetonitrile]
100 to 1000 nM	< 100 nM	< 100 nM	C=CC(=O)N1CCN(c2nc(OC[C@@H]3C[C@H](C(=O)N4CCN(Cc5ccc(-n6c(O)nnc6-c6cc(C(C)C)c(O)cc6O)cc5)CC4)CN3C)nc3c2CCN(c2cccc4cccc(Cl)c24)C3)C[C@@H]1CC#N [Compound 340, 2-[(2S)-4-[7-(8-chloronaphthalen-1-yl)-2-{[(2S,4S)-4-[4-({4-[3-(2,4-dihydroxy-5-isopropylphenyl)-5-hydroxy-1,2,4-triazol-4-yl]phenyl}methyl)piperazine-1-car-bonyl]-1-methylpyrrolidin-2-yl]methoxy}-5H,6H,8H-pyrido[3,4-d]pyrimidin-4-yl]-1-(prop-2-enoyl)piperazin-2-yl]acetonitrile]
< 100 nM	< 100 nM	< 100 nM	C=CC(=O)N1CCN(c2nc(OC[C@@H]3CC[C@H](CN4CCN(C(=O)C5CCN(Cc6ccc(-n7c(C(=O)NCC(F)(F)F)nnc7-c7cc(C(C)C)c(O)cc7O)cc6)CC5)CC4)N3C)nc3c2CCN(c2cccc4cccc(Cl)c24)C3)C[C@@H]1CC#N [Compound 310, 4-(4-{[4-(4-{[(2R,5S)-5-({[7-(8-chloronaphthalen-1-yl)-4-[(3S)-3-(cyanomethyl)-4-(prop-2-enoyl)piperazin-1-yl]-5H,6H,8H-pyrido[3,4-d]pyrimidin-2-yl]oxy}methyl)-1-methylpyrrolidin-2-yl]methyl}piperazine-1-carbonyl)piperidin-1-yl]methyl}phenyl)-5-(2,4-dihydroxy-5-isopropylphenyl)-N-(2,2,2-trifluoroethyl)-1,2,4-triazole-3-carboxamide]
